Earlier results as cited in patent publication US7320786B2, “Photodynamic therapy treatment for eye disease” (Light Sciences Oncology, Inc., priority 2000, dated 2008).

Conditions: systemically administered photosensitizer, clinical use

Molecule	duration of skin photosensitivity
CCOC(=O)C1=Cc2c3nc(cc4nc(cc5[n-]c(cc6[n-]c2c(C)c6CC)c(C)c5CC)C(C)=C4CC)[C@@H](C)[C@]13CC.[Cl-].[Cl-].[Sn] (racemic) [Purlytin]	several
Oc1cccc(-c2c3nc(c(-c4cccc(O)c4)c4ccc([nH]4)c(-c4cccc(O)c4)c4nc(c(-c5cccc(O)c5)c5ccc2[nH]5)CC4)C=C3)c1 [Foscan]	several
sodium porfimer [Photophrin]	up to 6 weeks
